This note sets out measurements from US7288541B2, “Propylcarbamate derivatives as inhibitors of serine and cysteine proteases” (SmithKline Beecham Corporation, priority 2001, dated 2007).

Read-outs that look alike come from different tables or passages of the source. Bounds are passed on as bounds.

Type in all cases: biochemical
The target in test [1] is T1, human cathepsin K (Homo sapiens, UniProt P43235).
T1 construct: The proform of cathepsin K was converted to mature cathepsin K by brief exposure to pH 4; made in house; host or cells: baculovirus; Trichoplusia ni High Five cells (virus raised in Sf-9)
T1 sequence (P43235 115-329): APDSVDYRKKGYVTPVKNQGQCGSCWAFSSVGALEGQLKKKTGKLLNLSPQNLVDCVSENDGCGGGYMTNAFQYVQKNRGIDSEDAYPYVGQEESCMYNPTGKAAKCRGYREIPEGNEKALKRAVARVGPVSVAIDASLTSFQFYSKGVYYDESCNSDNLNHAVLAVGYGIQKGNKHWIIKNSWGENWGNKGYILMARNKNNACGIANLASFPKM
Briefly: Cathepsin K inhibition, fluorogenic substrate Cbz-Phe-Arg-AMC, progress curve method. The following applies: recombinant human enzyme, 10 μM substrate, read-out: hCat K IC50. The method, then:
All assays for cathepsin K were carried out with human and rat recombinant enzyme. Assays for cathepsins S & V were also carried out with human recombinant enzyme. Assays for human cathepsins B, H, and L were carried out with enzyme prepared from human liver tissue. […] A stock substrate solution of Cbz-Phe-Arg-AMC was prepared at a concentration of 50 mM in dimethyl sulfoxide. This substrate was diluted into the assay for a final substrate concentration of 10 μM in the rat cathepsin K, human cathepsin K, and human cathepsin B assays; a final substrate concentration of 5 μM in the human cathepsin L assay; and a final substrate concentration of 2 μM in the human cathepsin V assay.
All assays contained 10% dimethyl sulfoxide. […] All assays were conducted at 30° C. Product fluorescence (excitation at 360 nm; emission at 440 nm, (except cathepsin H which used excitation at 340 nm; emission at 420 nm)) was monitored with a PerSeptive Biosystems Cytofluor II fluorescence plate reader. Product progress curves were generated over 2.3 h monitoring the formation of 7-amino-4-methylcoumarin product (or β-naphthalamide for cathepsin H).
Human and Rat Cathepsin K:
The cells continued to grow for 72 h post-infection, before the virus was harvested by centrifugation at 1400×g for 30 min.
One and one-half liters of Trichoplusia ni (T. ni) High Five (TM) cells [JRH Biosciences, Woodland, Calif. […] The cells were grown for 24 h at 28° C., 50 RPM, and 50% dissolved oxygen. […] Media were separated from cells at a rate of 1 L/min using the Centritech 100 (TM) continuous-flow centrifuge (DuPont) operating at 200×g.
Protein Purification: Media (human and rat) were filtered through a Whatman 3 filter, and then loaded onto a 25 mL Poros HS II (26 mm×47 mm) cation exchange column equilibrated in 25 mM sodium acetate at pH 5.5 (equilibration buffer). The column was washed until the absorbance reached the baseline value, and then the protein was eluted with a linear gradient from 0–2 M sodium chloride in the equilibration buffer. Column fractions were analyzed by SDS-PAGE, N-terminal sequencing, and mass spectrometry. Fractions containing the proform of cathepsin K were pooled and frozen at −80° C. The proform was concentrated in an Amicon Centriprep 10 and fractionated with a Superdex 75 column (26 mm×600 mm, Pharmacia) equilibrated in 400 mM sodium chloride, 25 mM sodium acetate at pH 5.5.
Cathepsin K Activation: The proform of cathepsin K was converted to mature cathepsin K by brief exposure to pH 4 in the presence of 5 mM L-cysteine. Typically, 5 mM L-cysteine was added to 10 mL of approximately 1 mg/mL procathepsin K. One mL of this solution was diluted ten-fold into 450 mM sodium acetate at pH 4.0 containing 5 mM L-cysteine. This solution was reacted at 23° C. for 2 min before neutralization with 2 mL 1.8 M sodium acetate at pH 6.0. The neutralized sample was added to the remaining 9 mL of procathepsin K. The mixture was incubated at 4° C. for 2–3 days. The activated cathepsin K was chromatographed on a Poros HS II column as described above.
Potential inhibitors were evaluated using the progress curve method. Assays were carried out in the presence of variable concentrations of test compound. Reactions were initiated by addition of buffered solutions of inhibitor and substrate to enzyme. Data analysis was conducted according to one of two procedures depending on the appearance of the progress curves in the presence of inhibitors. […] Ki values were calculated from IC50 values using equation 2 assuming a competitive model.

Test [2] concerns the target T2, human cathepsin B (Homo sapiens, UniProt P07858).
T2 construct: enzyme prepared from human liver tissue; from tissue; host or cells: human liver
The experiment in a line: Cathepsin B inhibition, fluorogenic substrate Cbz-Phe-Arg-AMC, progress curve method. Particulars: Table 2, Inhibition of Cathepsins (Ki in nM); enzyme from human liver tissue, 10 μM substrate, pH 5.5; read-out: hCat B IC50. The method, then:
(§1) All assays for cathepsin K were carried out with human and rat recombinant enzyme. Assays for cathepsins S & V were also carried out with human recombinant enzyme. Assays for human cathepsins B, H, and L were carried out with enzyme prepared from human liver tissue. Standard assay conditions for the determination of kinetic constants used a fluorogenic peptide substrate, typically (5S,8S)-13-amino-5-benzyl-13-imino-3-methylene-N-(4-methyl-2-oxo-2H-chromen-7-yl)-6-oxo-1-phenyl-2-oxa-4,7,12-triazatridecane-8-carboxamide (Cbz-Phe-Arg-AMC), and were determined in 100 mM sodium acetate at pH 5.5 containing 10 mM dithiothreitol and 120 mM sodium chloride. […]
(§2) All assays contained 10% dimethyl sulfoxide. […] Product fluorescence (excitation at 360 nm; emission at 440 nm, (except cathepsin H which used excitation at 340 nm; emission at 420 nm)) was monitored with a PerSeptive Biosystems Cytofluor II fluorescence plate reader. […]
(§3) Potential inhibitors were evaluated using the progress curve method. […] For those compounds whose progress curves were linear, the enzymatic activity (RATE) was plotted against the concentration of test compound, including inhibitor concentration of zero ([I]=0), and the IC50 determined from a fit of equation 1 to the data, RATE=Vmax/(1+([I]/IC50)) (1) where Vmax is the best fit estimate of the maximal enzymatic activity. […]

The target in test [3] is T3, human cathepsin L (Homo sapiens, UniProt P07711).
T3 construct: enzyme prepared from human liver tissue; from tissue; host or cells: human liver
T3 sequence (P07711 114-288 limits assumed): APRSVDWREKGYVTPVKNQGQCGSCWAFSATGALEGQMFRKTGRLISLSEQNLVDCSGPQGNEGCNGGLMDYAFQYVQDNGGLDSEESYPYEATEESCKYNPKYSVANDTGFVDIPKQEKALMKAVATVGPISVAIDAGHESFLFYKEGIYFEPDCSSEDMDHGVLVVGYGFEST
T3 sequence (P07711 292-333 limits assumed): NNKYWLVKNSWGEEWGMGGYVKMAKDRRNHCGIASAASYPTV
Briefly: Cathepsin L inhibition, fluorogenic substrate Cbz-Phe-Arg-AMC, progress curve method. The following applies: Table 2, Inhibition of Cathepsins (Ki in nM); enzyme from human liver tissue, 5 μM substrate, pH 5.5; read-out: hCat L IC50. How it is done:
as §1, §2, §3

In test [4] the target is human cathepsin S (Homo sapiens, UniProt P25774). Briefly: Cathepsin S inhibition, fluorogenic substrate Cbz-Val-Val-Arg-AMC, progress curve method. The following applies: Table 2, Inhibition of Cathepsins (Ki in nM); recombinant human enzyme, 10 μM substrate, pH 5.5; read-out: hCat S IC50. How it is done: as §1, §2, §3
Chain of human cathepsin S (P25774 115-331): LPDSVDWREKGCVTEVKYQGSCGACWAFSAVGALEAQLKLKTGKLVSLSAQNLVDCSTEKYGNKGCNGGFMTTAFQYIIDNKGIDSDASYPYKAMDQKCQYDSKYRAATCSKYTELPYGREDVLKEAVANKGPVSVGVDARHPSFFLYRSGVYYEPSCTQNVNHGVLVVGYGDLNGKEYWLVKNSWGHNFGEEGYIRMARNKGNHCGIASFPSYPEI
Test [5] deals with human cathepsin V (Homo sapiens, UniProt O60911). Briefly: Cathepsin V inhibition, fluorogenic substrate Cbz-Phe-Arg-AMC, progress curve method. Particulars: Table 2, Inhibition of Cathepsins (Ki in nM); recombinant human enzyme, 2 μM substrate, pH 5.5; read-out: hCat V IC50. The method, then:
as §1, §2, §3

[6] abbreviates: Table 1, Inhibition of Cathepsin K (Ki in nM), pH 5.5, 30° C.
Where [7] appears, read: Table 2, Inhibition of Cathepsins (Ki in nM), pH 5.5.

Chain of human cathepsin V (O60911 114-334): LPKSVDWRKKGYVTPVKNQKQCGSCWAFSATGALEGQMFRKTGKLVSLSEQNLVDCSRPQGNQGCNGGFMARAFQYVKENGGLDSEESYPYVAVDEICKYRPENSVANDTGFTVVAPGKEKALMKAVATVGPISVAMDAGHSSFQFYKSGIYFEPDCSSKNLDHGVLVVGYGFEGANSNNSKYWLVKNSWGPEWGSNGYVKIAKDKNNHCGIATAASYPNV

The term IC50 denotes the concentration that gives 50% inhibition. For `CCCC[C@H](NC(=O)O[C@@H]1CN(c2nc3ccccc3s2)CC1(C)C)C(=O)CNS(=O)(=O)c1ccccn1` [Example 6, (3S)-1-(1,3-benzothiazol-2-yl)-4,4-dimethylpyrrolidinyl (1S)-1-{[(2-pyridinylsulfonyl)amino]acetyl}pentylcarbamate], the IC50 in test [1] (setting [6]) fell in the range of 100 to 1000 nM; in test [1] (setting [7]), 100 to 1000 nM; in test [2] it was 1000 to 10000 nM; in test [3] it was 1000 to 10000 nM; in test [4], 10 to 100 nM; in test [5], 100 to 1000 nM.
As for `C[C@H](NC(=O)O[C@H](Cn1cnc2cc(Cl)c(Cl)cc21)C(C)(C)C)C(=O)CNS(=O)(=O)c1ccccn1` [Example 16, (1S)-1-[(5,6-dichloro-1H-benzimidazol-1-yl)methyl]-2,2-dimethylpropyl (1S)-1-methyl-2-oxo-3-[(2-pyridinylsulfonyl)amino]propylcarbamate], the IC50 is less than 10 nM in test [1] (setting [6]); less than 10 nM in test [1] (setting [7]); 10 to 100 nM in test [2]; 10 to 100 nM in test [3]; less than 10 nM in test [4]; less than 10 nM in test [5].
